# Data from patent US8242275B2, “Bicyclic pyrazole compounds as antibacterial agents” (Janssen Pharmaceutica NV, priority 2005, dated 2012).
# Where two headings read alike, the source gives them in different places.
# Columns and labels:
# MSSA ATCC 29213 = experiment: Resistant strains assay (broth microdilution MIC); assay type: cell-based; conditions: Staphylococcus aureus, read-out: MIC, Column B
# Experimental: (§1) Compounds of the present invention were tested for activity against susceptible and resistant bacterial strains in vitro, and activity was compared to known anti-bacterial agents. Testing protocols followed NCCLS methodology for broth microdilution assays. MIC values in μg/mL are presented in Table 3 for the following strains: Column A: MSSA ATCC13709 (Smith); Column B: MSSA ATCC 29213; Column C: MRSA OC3726 (COL); Column D: MRSA OC2878.
# MSSA ATCC13709 (Smith) = experiment: Resistant strains assay (broth microdilution MIC); assay type: cell-based; conditions: Staphylococcus aureus
# Experimental: as §1
# CipR MRSA OC3946 = experiment: Resistant strains assay (broth microdilution MIC); assay type: cell-based; conditions: Staphylococcus aureus; CipR MRSA OC3946; read-out: MIC, Column E
# Experimental: as §1
# MIC values in μg/mL are presented in Table 4 for the following strains: Column E: CipR MRSA OC3946; Column F: CipR MRSA OC4159; Column G: CipR MRSA OC4222; Column H: CipR MRSA OC5273.
# [1] = system: E. coli KL-16 (GSC strain 4245); experiment: In vitro antibacterial activity (MIC assay), broth microdilution; assay type: cell-based; conditions: Escherichia coli
# How it was run: (§2)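 Bacteria at roughly 5×10^5 CFU/mL final were grown 16–24 h at 35° C in wells holding 2-fold serial dilutions (11 points) of compound prepared in 100% DMSO, following NCCLS M7-A5. MIC, in μg/mL, is the concentration that stops visible growth relative to untreated wells.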
# S. aureus ATCC13709 = experiment: as above; assay type: cell-based
# How it was run: as §2
# S. pneumoniae ATCC49619 = experiment: as above; assay type: cell-based; conditions: Streptococcus pneumoniae, ATCC49619; read-out: S. pneumoniae ATCC49619 MIC
# How it was run: as §2
# E. coli topoisomerase IV = target: T1, E. coli topoisomerase IV (Escherichia coli, UniProt P0AFI2+P20083); experiment: Topoisomerase IV inhibition assay (relaxation); assay type: biochemical
# T1 construct: purchased John Innes Enterprises Ltd. (John Innes Centre, UK)
# Experimental: Inhibition of the relaxation activity of E. coli topoisomerase IV was determined using enzyme, buffers and substrates received from John Innes Enterprises Ltd. (John Innes Centre, UK). The reactions were performed according to the manufacturer's directions, with the following modifications.
# DNA relaxation reactions were carried out in a total reaction volume of 20 μL, containing 300 ng of supercoiled pBR322, 40 mM HEPES-KOH (pH 7.6), 100 mM potassium glutamate, 10 mM Mg(OAc)2, 10 mM DTT, 4 μg/mL tRNA, 2 mM ATP, and 50 μg/mL BSA. Compounds, diluted in 10% DMSO, were added to the reaction mixture to reach a final concentration of 0.5% DMSO. Enzyme was diluted to 0.45 unit/μL in a solution of 40 mM HEPES-KOH (pH 7.6), 150 mM potassium glutamate, 1 mM DTT, 1 mM EDTA, and 40% glycerol. Diluted enzyme (0.9 unit) was added to each reaction.
# The reactions were incubated at 37° C. for 45 min. The reactions were then cooled to 0° C. followed by addition of 3 μL of 40% glycerol, 100 mM Tris-HCl (pH 7.5), 50 mM EDTA, 0.5% SDS and 0.1% bromophenol blue. Samples were separated on 1.0% agarose gels. Gels were stained with Ethidium bromide and photographed with a Stratagene Eagle Eye II.
# CipR MRSA OC4159 = experiment: Resistant strains assay (broth microdilution MIC); assay type: cell-based; conditions: Staphylococcus aureus, read-out: MIC, Column F
# Excerpt: (§3) Testing protocols followed NCCLS methodology for broth microdilution assays.
# CipR MRSA OC4222 = experiment: Resistant strains assay (broth microdilution MIC); assay type: cell-based; conditions: Staphylococcus aureus; CipR MRSA OC4222; read-out: MIC, Column G
# Excerpt: as §3
# CipR MRSA OC5273 = experiment: Resistant strains assay (broth microdilution MIC); assay type: cell-based; conditions: Staphylococcus aureus, read-out: MIC, Column H
# Excerpt: as §3
# MRSA OC2878 = experiment: Resistant strains assay (broth microdilution MIC); assay type: cell-based; conditions: Staphylococcus aureus; MRSA OC2878; read-out: MIC, Column D
# Excerpt: as §3
# MRSA OC3726 (COL) = experiment: Resistant strains assay (broth microdilution MIC); assay type: cell-based; conditions: Staphylococcus aureus; MRSA OC3726 (COL); read-out: MIC, Column C
# Excerpt: as §3
# E. coli DNA gyrase = target: T2, E. coli DNA gyrase (Escherichia coli, UniProt P0AES4+P0AES6); experiment: DNA gyrase inhibition assay (supercoiling); assay type: biochemical
# T2 construct: purchased John Innes Enterprises Ltd. (John Innes Centre, UK)
# How it was run: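 Agarose-gel (1.0%, ethidium-stained) readout of supercoiled versus relaxed pBR322 after 30 min at 37° C. Each reaction held 250 ng DNA, 0.2 unit enzyme, 1 mM ATP, 4 mM MgCl2, 24 mM KCl in 35 mM Tris-HCl pH 7.5, and compound at 0.5% DMSO final.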
# [2] = Staphylococcus aureus, ATCC13709; read-out: S. aureus ATCC13709 MIC
# [3] = E. coli topoisomerase IV relaxation, visual inspection of gels, read-out: Topoisomerase IV IC50 (converted)
# [4] = E. coli DNA gyrase supercoiling, visual inspection of gels, read-out: DNA Gyrase IC50 (converted)
# T1 sequence (P0AFI2 whole entry): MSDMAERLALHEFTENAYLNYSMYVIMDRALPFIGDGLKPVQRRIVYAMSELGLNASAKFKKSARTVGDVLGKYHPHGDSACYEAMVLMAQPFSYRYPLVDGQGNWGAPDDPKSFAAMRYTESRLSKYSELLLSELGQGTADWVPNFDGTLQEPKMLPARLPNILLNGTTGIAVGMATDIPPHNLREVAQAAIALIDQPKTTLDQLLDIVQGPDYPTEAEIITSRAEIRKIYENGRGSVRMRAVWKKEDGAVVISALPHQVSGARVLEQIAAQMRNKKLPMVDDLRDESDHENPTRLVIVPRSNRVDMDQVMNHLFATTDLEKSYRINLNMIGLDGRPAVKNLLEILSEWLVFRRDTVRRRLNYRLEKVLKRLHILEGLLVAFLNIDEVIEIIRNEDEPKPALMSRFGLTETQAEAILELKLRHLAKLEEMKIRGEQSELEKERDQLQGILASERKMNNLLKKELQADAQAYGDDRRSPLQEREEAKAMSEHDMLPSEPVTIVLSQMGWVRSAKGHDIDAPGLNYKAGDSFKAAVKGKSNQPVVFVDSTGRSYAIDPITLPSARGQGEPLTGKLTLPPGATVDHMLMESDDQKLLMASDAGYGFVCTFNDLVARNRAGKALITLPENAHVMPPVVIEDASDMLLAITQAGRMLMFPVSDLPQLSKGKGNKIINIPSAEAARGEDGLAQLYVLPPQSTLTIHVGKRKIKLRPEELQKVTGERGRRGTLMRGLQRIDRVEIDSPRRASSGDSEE
# T1 sequence (P20083 whole entry): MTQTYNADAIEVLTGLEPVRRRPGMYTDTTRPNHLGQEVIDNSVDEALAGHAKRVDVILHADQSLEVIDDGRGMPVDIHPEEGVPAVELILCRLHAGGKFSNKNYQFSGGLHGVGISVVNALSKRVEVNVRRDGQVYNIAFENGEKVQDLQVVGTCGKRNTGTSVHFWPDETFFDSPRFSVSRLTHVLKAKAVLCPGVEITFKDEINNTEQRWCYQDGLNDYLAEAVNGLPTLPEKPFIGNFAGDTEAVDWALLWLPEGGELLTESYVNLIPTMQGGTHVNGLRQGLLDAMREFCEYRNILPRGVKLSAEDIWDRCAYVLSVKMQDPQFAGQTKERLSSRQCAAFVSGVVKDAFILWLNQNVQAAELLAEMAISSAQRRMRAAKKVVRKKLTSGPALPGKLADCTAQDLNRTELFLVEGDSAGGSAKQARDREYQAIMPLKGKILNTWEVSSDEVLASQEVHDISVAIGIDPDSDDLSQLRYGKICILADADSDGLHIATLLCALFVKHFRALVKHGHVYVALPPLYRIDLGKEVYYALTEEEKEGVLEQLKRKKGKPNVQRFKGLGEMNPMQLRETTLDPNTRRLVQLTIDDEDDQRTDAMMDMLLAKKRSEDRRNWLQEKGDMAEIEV
# T2 sequence (P0AES4 whole entry, one chain of several): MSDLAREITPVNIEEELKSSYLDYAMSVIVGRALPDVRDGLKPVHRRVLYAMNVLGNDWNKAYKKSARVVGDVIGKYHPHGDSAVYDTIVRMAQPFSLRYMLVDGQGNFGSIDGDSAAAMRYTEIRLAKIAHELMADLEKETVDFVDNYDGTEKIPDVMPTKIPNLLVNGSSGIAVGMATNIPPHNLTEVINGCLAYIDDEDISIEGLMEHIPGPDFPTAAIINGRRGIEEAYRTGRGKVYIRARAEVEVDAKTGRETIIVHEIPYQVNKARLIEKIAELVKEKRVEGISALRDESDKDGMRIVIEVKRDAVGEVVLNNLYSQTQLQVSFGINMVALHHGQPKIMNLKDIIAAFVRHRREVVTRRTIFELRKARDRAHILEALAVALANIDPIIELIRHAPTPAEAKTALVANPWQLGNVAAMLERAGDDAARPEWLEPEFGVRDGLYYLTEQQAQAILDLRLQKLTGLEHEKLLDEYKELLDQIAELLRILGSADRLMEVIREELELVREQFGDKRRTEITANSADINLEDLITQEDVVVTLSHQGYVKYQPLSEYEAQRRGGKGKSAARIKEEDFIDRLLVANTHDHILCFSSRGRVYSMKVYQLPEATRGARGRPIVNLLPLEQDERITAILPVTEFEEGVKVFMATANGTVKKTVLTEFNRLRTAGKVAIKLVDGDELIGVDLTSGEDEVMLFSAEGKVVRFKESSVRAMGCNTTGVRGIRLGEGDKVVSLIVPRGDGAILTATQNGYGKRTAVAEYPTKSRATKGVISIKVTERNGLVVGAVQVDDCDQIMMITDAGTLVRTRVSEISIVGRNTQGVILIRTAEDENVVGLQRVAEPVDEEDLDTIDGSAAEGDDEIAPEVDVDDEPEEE
SMILES,MIC (MSSA ATCC 29213) [mg/L],MIC (MSSA ATCC13709 (Smith)) [mg/L],MIC (CipR MRSA OC3946) [mg/L],MIC [1] [mg/L],MIC (S. aureus ATCC13709; [2]) [mg/L],MIC (S. pneumoniae ATCC49619) [mg/L],IC50 (E. coli topoisomerase IV; [3]) [µM],MIC (CipR MRSA OC4159) [mg/L],MIC (CipR MRSA OC4222) [mg/L],MIC (CipR MRSA OC5273) [mg/L],MIC (MRSA OC2878) [mg/L],MIC (MRSA OC3726 (COL)) [mg/L],IC50 (E. coli DNA gyrase; [4]) [µM],"MIC (S. aureus ATCC13709; Staphylococcus aureus, ATCC13709, read-out: S. aureus ATCC13709 MIC) [mg/L]",IC50 (E. coli DNA gyrase) [µM],IC50 (E. coli topoisomerase IV) [µM]
"O=C(O)c1cn(C2CC2)c2cc(N3CCNCC3)c(F)cc2c1=O [Ciprofloxacin, reference compound]",0.25 to 0.5,0.25 to 0.5,16,,,,,,,,,,,,,
"COc1ccc2nccc(-n3cc4c(n3)CCC(NC(=O)c3cc5c(cc3F)SCC(=O)N5)C4)c2c1 (stereo not drawn) [Example 18, 7-Fluoro-3-oxo-3,4-dihydro-2H-benzo[1,4]thiazine-6-carboxylic acid [2-(6-methoxy-quinolin-4-yl)-4,5,6,7-tetrahydro-2H-indazol-5-yl]-amide]",0.25,0.031,0.015,4,0.03,1,0.496,0.031,0.031,0.062,0.062,0.062,,,,
"COc1ccc2nccc(-n3cc4c(n3)CCC(NC/C=C/c3ccccc3)C4)c2c1 (stereo not drawn) [Example 55, [2-(6-Methoxy-quinolin-4-yl)-4,5,6,7-tetrahydro-2H-indazol-5-yl]-(3-phenyl-allyl)-amine]",2,0.5,0.5,64,0.5,1,,0.5,0.25,1,0.5,1,,,,
"COc1ccc2nccc(-n3cc4c(n3)CCC(NC(=O)c3c(F)cc5c(c3F)NC(=O)CS5)C4)c2c1 (stereo not drawn) [Example 108, 5,7-Difluoro-3-oxo-3,4-dihydro-2H-benzo[1,4]thiazine-6-carboxylic acid [2-(6-methoxy-quinolin-4-yl)-4,5,6,7-tetrahydro-2H-indazol-5-yl]-amide]",,,,8,0.125,1,,,0.06,,,,1.92,,,
"COc1ccc2nccc(-n3cc4c(n3)CCC(NC(=O)c3c(F)cc5c(c3F)NC(=O)CS5)C4)c2n1 (stereo not drawn) [Example 109, 5,7-Difluoro-3-oxo-3,4-dihydro-2H-benzo[1,4]thiazine-6-carboxylic acid [2-(6-methoxy-[1,5]naphthyridin-4-yl)-4,5,6,7-tetrahydro-2H-indazol-5-yl]-amide]",,,,> 128,0.125,4,,,0.03,,,,1.91,,,
"COc1ccc2nccc(-n3cc4c(n3)CCC(NC(=O)c3cc5c(cc3Br)SCC(=O)N5)C4)c2n1 (stereo not drawn) [Example 113, 7-Bromo-3-oxo-3,4-dihydro-2H-benzo[1,4]thiazine-6-carboxylic acid [2-(6-methoxy-[1,5]naphthyridin-4-yl)-4,5,6,7-tetrahydro-2H-indazol-5-yl]-amide]",,,,2,0.125,2,0.442,,,,,,0.442,,,
"COc1ccc2nccc(-n3cc4c(n3)CCC(NC(=O)c3cc5c(cc3Br)SCC(=O)N5)C4)c2c1 (stereo not drawn) [Example 114, 7-Bromo-3-oxo-3,4-dihydro-2H-benzo[1,4]thiazine-6-carboxylic acid [2-(6-methoxy-quinolin-4-yl)-4,5,6,7-tetrahydro-2H-indazol-5-yl]-amide]",,,,2,,2,0.221,,,,,,0.886,0.125,,
"COc1ccc2nccc(-n3cc4c(n3)CCC(NC(=O)c3cc5c(cc3C(F)(F)F)SCC(=O)N5)C4)c2c1 (stereo not drawn) [Example 115, 3-Oxo-7-trifluoromethyl-3,4-dihydro-2H-benzo[1,4]thiazine-6-carboxylic acid [2-(6-methoxy-quinolin-4-yl)-4,5,6,7-tetrahydro-2H-indazol-5-yl]-amide]",,,,8,0.125,8,0.452,,,,,,1.81,,,
"COc1ccc2nccc(-n3cc4c(n3)CCC(NC(=O)c3ccc5c(c3)NC(=O)CO5)C4)c2n1 (stereo not drawn) [Example 117, 3-Oxo-3,4-dihydro-2H-benzo[1,4]oxazine-6-carboxylic acid [2-(6-methoxy-[1,5]naphthyridin-4-yl)-4,5,6,7-tetrahydro-2H-indazol-5-yl]-amide]",,,,4,0.125,8,0.531,,,,,,2.13,,,
COc1ccc2nccc(-n3cc4c(n3)CCC(NCCOc3cc(F)cc(F)c3)C4)c2c1 (stereo not drawn) [Example 121],,,,8,1,2,,,,,,,,,1.11,0.277
"COc1ccc2nccc(-n3cc4c(n3)CCC(NC(=O)c3cc5c(cc3C)SCC(=O)N5)C4)c2c1 (stereo not drawn) [Example 131, 7-Methyl-3-oxo-3,4-dihydro-2H-benzo[1,4]thiazine-6-carboxylic acid [2-(6-methoxy-quinolin-4-yl)-4,5,6,7-tetrahydro-2H-indazol-5-yl]-amide]",,,,8,0.5,16,,,0.5,,,,,,,
"CCn1cc(C(=O)O)c(=O)c2cc(F)c(N3CCNCC3)cc21 [Norfloxacin, reference compound]",2,1,128,,,,,> 128,> 128,> 128,1,2,,,,
"C[C@@H]1CN(c2c(F)c(N)c3c(=O)c(C(=O)O)cn(C4CC4)c3c2F)C[C@H](C)N1 [Sparfloxacin, reference compound]",0.062,0.062,4,,,,,16,8,16,0.062,0.125,,,,
